Test results as given in patent publication US12421222B2 (AUGUSTINE THERAPEUTICS, priority 2021, dated 2025).

Test system: acetylated tubulin (Lys40) in HeLa cells
Test: Acetylated α-tubulin measurement in vitro (immunocytochemistry)
Type: cell-based
Conditions: Homo sapiens, 6 hours incubation, acetylated tubulin (Lys40) by immunocytochemistry, read-out: IC50 (Tubulin deacetylation)
Description: HeLa cells were cultured in UltraCulture serum-free medium (Lonza) supplemented with 2 mM glutamine (Lonza). Assays were performed at 96-well or 384-well format, differences in assay protocols are detailed in Table 6. Cells per well were plated and incubated overnight at 37° C. overnight in a humidified atmosphere containing 5% CO2. Cell density and seeding volumes are detailed in Table 6. Compounds (dissolved in 100% DMSO) or DMSO (vehicle) were added manually by diluting them in culture medium at 10× final assay concentration and adding 10 μL to cells (96-well protocol). Alternatively, 50 nL compound was added directly to the cell culture using the Echo650 (Labcyte) (384-well protocol). In this assay, the final assay concentration of DMSO is 0.1%-0.4%. Trichostatin A (TSA) was used as a positive control. Cells were incubated with compounds at 37° C. in a humidified atmosphere containing 5% CO2 for 6 hours. Levels of acetylated tubulin (Lys40) were assessed by immunocytochemistry using target-specific antibodies. Cells were fixed with 4% PFA at RT as detailed in Table 6. After 2-3 wash steps with PBS, cells were permeabilized with 0.5% Triton in PBS at RT for 10 minutes followed by 1-2 washes with PBS. To avoid non-specific antibody staining, cells were blocked with 3% BSA in PBS at room temperature for 1 hour. […] Cells were washed 2-3 times with PBS and labelled for 1 h at RT with goat anti-mouse conjugated with Alexa 647 (Thermofisher) and goat anti-rabbit conjugated with Alexa 555 (Thermofisher) secondary antibodies, diluted in 1% BSA to a final concentration of 1:1000. Simultaneously, nuclei were stained with 1:10000-1:15000 Hoechst (Thermofisher). Incubation time and temperature of the primary antibodies are detailed in Table 6. Cells were washed 2-3 times with PBS and they were imaged with the Operetta CLS or Opera Phenix (PerkinElmer). Imaging is further detailed in Table 6. For imaging analysis, the Harmony analysis software (PerkinElmer) was used. Cytoplasmic (defined by total α-tubulin staining) intensities per well were used for α-tubulin (acetylated and total) quantification. Intensities were measured per cell and then averaged per well. Mean intensity levels of acetylated tubulin were normalized to the mean intensity levels of total tubulin. The changes in acetylated tubulin were normalized for each plate using GraphPad Prism software: tubulin acetylation in vehicle (DMSO)-treated cells were set to 0% while tubulin acetylation in TSA-treated cells were set to 100%. EC50 values were calculated using the log(inhibitor) vs. response—Variable slope (four parameters) nonlinear regression in GraphPad Prism software.

Structure (SMILES)	IC50 [nM]
CC(NC(=O)CO)c1ccc(C(=O)CSc2nc3cnc(C(F)(F)F)cc3o2)s1 (stereo in doubt) [Example 129, (S)-2-hydroxy-N-(1-(5-(2-((6-(trifluoromethyl)oxazolo[4,5-c]pyridin-2-yl)thio)acetyl)thiophen-2-yl)ethyl)acetamide]	100 to 500
O=C(CSc1nc(C(F)(F)F)nc2ncccc12)c1ccc(CN2CCC(O)C2=O)s1 (stereo in doubt) [Example 155, (S)-3-hydroxy-1-((5-(2-((2-(trifluoromethyl)pyrido[2,3-d]pyrimidin-4-yl)thio)acetyl)thiophen-2-yl)methyl)pyrrolidin-2-one]	≤ 100
O=C(CSc1nc(C(F)(F)F)nc2ncccc12)c1ccc(CN2CCC(O)C2=O)s1 (stereo in doubt) [Example 156, (R)-3-hydroxy-1-((5-(2-((2-(trifluoromethyl)pyrido[2,3-d]pyrimidin-4-yl)thio)acetyl)thiophen-2-yl)methyl)pyrrolidin-2-one]	≤ 100
Cc1nc(SCC(=O)c2ccc(CNC(=O)C(C)(C)C)s2)c2cnn(C)c2n1 [Example 5, N-((5-(2-((1,6-dimethyl-1H-pyrazolo[3,4-d]pyrimidin-4-yl)thio)acetyl)thiophen-2-yl)methyl)pivalamide]	> 3330
Cc1nc(SCC(=O)c2ccc(CNC(=O)C(C)(C)C)s2)c2cccnc2n1 [Example 7, N-((5-(2-((2-methylpyrido[2,3-d]pyrimidin-4-yl)thio)acetyl)thiophen-2-yl)methyl)pivalamide]	100 to 500
Cc1nc(SCC(=O)c2ccc(CNC(=O)C(C)(C)C)s2)c2ccc(Cl)cc2n1 [Example 8, N-((5-(2-((7-chloro-2-methylquinazolin-4-yl)thio)acetyl)thiophen-2-yl)methyl)pivalamide]	> 3330
Cc1nc(SCC(=O)c2ccc(CNC(=O)C(C)(C)C)s2)c2cc(F)ccc2n1 [Example 9, N-((5-(2-((6-fluoro-2-methylquinazolin-4-yl)thio)acetyl)thiophen-2-yl)methyl)pivalamide]	1000 to 3330
Cc1nc(SCC(=O)c2ccc(CNC(=O)C(C)(C)C)s2)c2ccc(F)cc2n1 [Example 10, N-((5-(2-((7-fluoro-2-methylquinazolin-4-yl)thio)acetyl)thiophen-2-yl)methyl)pivalamide]	1000 to 3330
COc1ccc2c(SCC(=O)c3ccc(CNC(=O)C(C)(C)C)s3)nc(C)nc2c1 [Example 12, N-((5-(2-((7-methoxy-2-methylquinazolin-4-yl)thio)acetyl)thiophen-2-yl)methyl)pivalamide]	1000 to 3330
CN(C)c1nc(SCC(=O)c2ccc(CNC(=O)C(C)(C)C)s2)c2ccccc2n1 [Example 16, N-((5-(2-((2-(dimethylamino)quinazolin-4-yl)thio)acetyl)thiophen-2-yl)methyl)pivalamide]	1000 to 3330
COc1ccc2nc(C)nc(SCC(=O)c3ccc(CNC(=O)C(C)(C)C)s3)c2c1 [Example 17, N-((5-(2-((6-methoxy-2-methylquinazolin-4-yl)thio)acetyl)thiophen-2-yl)methyl)pivalamide]	500 to 1000
Cc1nc(SCC(=O)c2ccc(CNC(=O)C(C)(C)C)s2)c2ncccc2n1 [Example 18, N-((5-(2-((2-methylpyrido[3,2-d]pyrimidin-4-yl)thio)acetyl)thiophen-2-yl)methyl)pivalamide]	1000 to 3330
CC(C)(C)C(=O)NCc1ccc(C(=O)CSc2nc(C(F)F)nc3ccccc23)s1 [Example 19, N-((5-(2-((2-(difluoromethyl)quinazolin-4-yl)thio)acetyl)thiophen-2-yl)methyl)pivalamide]	1000 to 3330
Cn1ncc2c(SCC(=O)c3ccc(CNC(=O)C(C)(C)C)s3)nc(C(F)(F)F)nc21 [Example 20, N-((5-(2-((1-methyl-6-(trifluoromethyl)-1H-pyrazolo[3,4-d]pyrimidin-4-yl)thio)acetyl)thiophen-2-yl)methyl)pivalamide]	100 to 500
Cn1ncc2c(SCC(=O)c3ccc(CNC(=O)C(C)(C)C)s3)nc(C(F)F)nc21 [Example 21, N-((5-(2-((6-(difluoromethyl)-1-methyl-1H-pyrazolo[3,4-d]pyrimidin-4-yl)thio)acetyl)thiophen-2-yl)methyl)pivalamide]	1000 to 3330
Cn1cc2c(SCC(=O)c3ccc(CNC(=O)C(C)(C)C)s3)nc(C(F)(F)F)nc2n1 [Example 22, N-((5-(2-((2-methyl-6-(trifluoromethyl)-2H-pyrazolo[3,4-d]pyrimidin-4-yl)thio)acetyl)thiophen-2-yl)methyl)pivalamide]	100 to 500
Cc1ccc2oc(SCC(=O)c3ccc(CNC(=O)C(C)(C)C)s3)nc2n1 [Example 23, N-((5-(2-((5-methyloxazolo[4,5-b]pyridine-2-yl)thio)acetyl)thiophen-2-yl)methyl)pivalamide]	500 to 1000
Cn1ncc2c(SCC(=O)c3ccc(CN4CCCC4=O)s3)ncnc21 [Example 25, 1-((5-(2-((1-methyl-1H-pyrazolo[3,4-d]pyrimidin-4-yl)thio)acetyl)thiophen-2-yl)methyl)pyrrolidin-2-one]	> 3330
Cn1ncc2c(SCC(=O)c3ncc(CNC(=O)C(C)(C)C)s3)ncnc21 [Example 27, N-((2-(2-((1-methyl-1H-pyrazolo[3,4-d]pyrimidin-4-yl)thio)acetyl)thiazol-5-yl)methyl)pivalamide]	1000 to 3330
Cn1ncc2c(SCC(=O)c3cc(F)c(CNC(=O)C(C)(C)C)s3)ncnc21 [Example 28, N-((3-fluoro-5-(2-((1-methyl-1H-pyrazolo[3,4-d]pyrimidin-4-yl)thio)acetyl)thiophen-2-yl)methyl)pivalamide]	1000 to 3330
Cn1ncc2c(SCC(=O)c3ccc(CNC(=O)c4ccccc4)s3)ncnc21 [Example 30, N-((5-(2-((1-methyl-1H-pyrazolo[3,4-d]pyrimidin-4-yl)thio)acetyl)thiophen-2-yl)methyl)benzamide]	1000 to 3330
Cn1ncc2c(SCC(=O)c3ccc(CNC(=O)C4CC4)s3)ncnc21 [Example 31, N-((5-(2-((1-methyl-1H-pyrazolo[3,4-d]pyrimidin-4-yl)thio)acetyl)thiophen-2-yl)methyl)cyclopropanecarboxamide]	1000 to 3330
CN(Cc1ccc(C(=O)CSc2ncnc3c2cnn3C)s1)C(=O)C1CC1 [Example 34, N-methyl-N-((5-(2-((1-methyl-1H-pyrazolo[3,4-d]pyrimidin-4-yl)thio)acetyl)thiophen-2-yl)methyl)cyclopropanecarboxamide]	1000 to 3330
O=C(CSc1nc(C(F)(F)F)nc2ccccc12)c1ccc(CCNC(=O)C2CC2)s1 [Example 36, N-(2-(5-(2-((2-(trifluoromethyl)quinazolin-4-yl)thio)acetyl)thiophen-2-yl)ethyl)cyclopropanecarboxamide]	> 3330
CC(C)(C)C(=O)NCc1ccc(C(=O)CSc2nc(C(F)(F)F)nc3ccccc23)s1 [Example 38, N-((5-(2-((2-(trifluoromethyl)quinazolin-4-yl)thio)acetyl)thiophen-2-yl)methyl)pivalamide]	500 to 1000
COc1ccc2nc(C)nc(SCC(=O)c3ccc(CNC(=O)C4CC4(F)F)s3)c2c1 (stereo not drawn) [Example 39, 2,2-difluoro-N-((5-(2-((6-methoxy-2-methylquinazolin-4-yl)thio)acetyl)thiophen-2-yl)methyl)cyclopropane-1-carboxamide]	500 to 1000
COc1ccc2nc(C)nc(SCC(=O)c3ccc(CNC(=O)C(F)(F)C(F)(F)F)s3)c2c1 [Example 40, 2,2,3,3,3-pentafluoro-N-((5-(2-((6-methoxy-2-methylquinazolin-4-yl)thio)acetyl)thiophen-2-yl)methyl)propanamide]	500 to 1000
Cn1cc2c(SCC(=O)c3ccc(CNC(=O)C4CC4)s3)nc(C(F)(F)F)nc2n1 [Example 41, N-((5-(2-((2-methyl-6-(trifluoromethyl)-2H-pyrazolo[3,4-d]pyrimidin-4-yl)thio)acetyl)thiophen-2-yl)methyl)cyclopropanecarboxamide]	1000 to 3330
O=C(CSc1nc(C(F)(F)F)nc2nn(C3CC3)cc12)c1ccc(CNC(=O)C2CC2(F)F)s1 (stereo not drawn) [Example 43, N-((5-(2-((2-cyclopropyl-6-(trifluoromethyl)-2H-pyrazolo[3,4-d]pyrimidin-4-yl)thio)acetyl)thiophen-2-yl)methyl)-2,2-difluorocyclopropane-1-carboxamide]	100 to 500
O=C(CSc1nc(C(F)(F)F)nc2nn(C3CC3)cc12)c1ccc(CNC(=O)C(F)(F)C(F)(F)F)s1 [Example 44, N-((5-(2-((2-cyclopropyl-6-(trifluoromethyl)-2H-pyrazolo[3,4-d]pyrimidin-4-yl)thio)acetyl)thiophen-2-yl)methyl)-2,2,3,3,3-pentafluoropropanamide]	100 to 500
